Assay results from US10624340B2, “Chemical combinations for attracting Vespidae” (priority 2017, dated 2020).
“And” between values parts separate entries of the source, which are not always exact repeats. Equal entries are not always repeated.

Assays:
Format in all cases: in vivo, V. pensylvanica
[1] = test system: Vespidae; assay: Box attraction test of single test agents (Example 1); conditions: 500 μL test agent in white box, 15 min tests, two tests, San Mateo County, July 2016; acetic acid 5%, citric acid 750 mM, ethanol 40%
[2] = test system: Vespidae; assay: 14-day trapping test in RESCUE Reusable Yellowjacket traps (Experiment 4); conditions: 2 mL heptyl butyrate with or without 2 mL acid solution in trap, hung 14 days, counted day 15
Method: Materials and Methods. The fourth experiment evaluated combinations of heptyl butyrate and citric acid, malic acid, and tartaric acid versus heptyl butyrate alone as baits for Vespidae. Heptyl butyrate was included for comparison because of its known attractiveness to V. pensylvanica (Davis et al., 1969, Supra).
Attraction Measurements. Testing the efficacy of attraction of the chemicals was conducted using four standard commercially-available RESCUE Reusable Yellowjacket® traps filled with the various test agents. In this experiment, the traps were set and hung 5-6 feet off of the ground with all traps separated by 3-4 feet from one another. Chemical treatments were added to the attractant chambers (cotton absorbant material) of the trap and hung for 14 days. Measurements of the number of trapped Vespidae were made on day 15.
Chemical Treatments. Four chemical treatments were selected and combined with heptyl butyrate and compared to heptyl butyrate alone as baits for Vespidae. Chemicals combined with heptyl butyrate included citric acid solution (5 grams in 50 mLs of water), malic acid (6 grams in 50 mLs of water), and tartaric acid (7 grams in 50 mLs of water). Experiment 4 used 2 mL of the standard attractant (heptyl butyrate) as is found in the RESCUE reusable yellowjacket traps for the heptyl butyrate alone test. […]

[3] = test system: Vespidae; assay: Box attraction test of heptyl butyrate with citric, malic or tartaric acid (Experiment 3); conditions: 500 μL of each agent, white box, 15 min tests, three tests, July 2017, acid alone, heptyl butyrate alone and combination run together, * P < 0.05 vs heptyl butyrate alone
Method: Materials and Methods. The third experiment evaluated combinations of heptyl butyrate and citric acid, malic acid, and tartaric acid versus heptyl butyrate alone as baits for Vespidae.
Attraction Measurements. Testing the efficacy of attraction of the chemicals was conducted using an apparatus that allows visualization of the Vespidae to an area with the attractant. This can be prepared in a variety of ways including the use of white 4-sided boxes in which the different attractants are placed at the bottom of the box. Attraction of the Vespidae to the boxes is visualized and Vespidae are counted when they fly into the plane of the box toward the attractant. Each experiment lasted 15 minutes and every 5 minutes, the boxes would be cleared of Vespidae and rotated counterclockwise to eliminate any possible effect of direction. Each experiment was conducted three times over the course of one day, for a total of 9 replicates per test.
Boxes were prepared using white paper (one foot square) and applying them to equal sizes of cardboard to create a 4-sided box with the white paper in the inside of the box. Boxes were placed in a triangle pattern on the ground and spaced equally three to four feet apart. Disposable plates with clipped-on absorbent material in them were placed in the bottom on the boxes. Each tested combination of attractants was poured onto the absorbent material on the plate and placed into a testing box.
Chemical Treatments. Four chemical treatments were selected and combined with heptyl butyrate and compared to heptyl butyrate alone as baits for Vespidae. Chemicals combined with heptyl butyrate included citric acid solution (5 grams in 50 mLs of water), malic acid (6 grams in 50 mLs of water), and tartaric acid (7 grams in 50 mLs of water). Experiment 3 used 500 μL of each test agent combined for a total of 1000 μL total volume in each test. The heptyl butyrate test used 500 μL of water and 500 µL of heptyl butyrate.

SMILES	Total Number of Vespidae Attracted to Single Test Agents, Sum Test 1 + 2 [1]	Total Number of V. Pensylvanica (Vespidae) Trapped During a 14-Day Test [2]	Total Number of Vespidae Attracted to Different Test Conditions [3]	Total Number of Vespidae Attracted to Different Test Conditions ([3]; listed as heptyl butyrate)
CCCCCCCOC(=O)CCC [Heptyl Butyrate, heptyl butyrate]	343	91	355 and 590 and 477	477 and 355 and 590
CCO [Ethanol, ethanol]	2	–	–	–
O=C(O)C(O)C(O)C(=O)O (stereo not shown) [Tartaric Acid, tartaric acid]	–	–	15	–
CCCC(=O)O [Butyric Acid, butyric acid]	5	–	–	–
CC(C)CO [Isobutanol, isobutanol]	21	–	–	–
CC(O)C(=O)O (stereo not shown) [Lactic Acid, lactic acid]	5	–	–	–
O=C(O)CC(O)C(=O)O (stereo not shown) [Malic Acid, malic acid]	–	–	19	–
O=C(O)CC(O)(CC(=O)O)C(=O)O [Citric Acid, citric acid]	10	–	22	–
CC(=O)O [Acetic Acid, acetic acid]	2	–	–	–
